#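 Five compound concentrations were applied to cells in 96-well plates for 48 hours; endpoints were derived by simple linear interpolation of the resulting dose-response curve. GI50 marks 50% less growth.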 Calls of active or inactive are those of the source. Cut-off read from the data, not from the text of the source: active = GI50 up to about 1.1 µM and inactive = higher. Where a SMILES comes first, the peptide text is derived from it. [ ]: non-standard residue; d: D form. The star is where a group is joined. Phe(4-NO2) = N[CH](Cc1ccc([N+](=O)[O-])cc1)C(=O)O; Boc = CC(C)(C)OC(=O)*; OtBu = CC(C)(C)O*
# Assays:
# Experiment in all cases: NCI anticancer screen, dose series, 48 h
# NCI/ADR-RES = tested on: NCI/ADR-RES
# LOX IMVI = tested on: LOX IMVI
# SNB-75 = tested on: SNB-75
# CAKI-1 = tested on: CAKI-1
# K562 = tested on: K562
# SK-OV-3 = tested on: SK-OV-3
# HCT-15 = tested on: HCT-15
# HT-29 = tested on: HT-29
# MDA-MB-435 = tested on: MDA-MB-435
# NCI-H226 = tested on: NCI-H226
# MOLT-4 = tested on: MOLT-4
# SN12C = tested on: SN12C
# UACC-62 = tested on: UACC-62
# HL-60 = tested on: HL-60
# A549 = tested on: A549
# SR = tested on: SR
# MCF7 = tested on: MCF7
# MDA-MB-231 = tested on: MDA-MB-231
# SNB-19 = tested on: SNB-19
# U-251 = tested on: U-251
SMILES,GI50 (NCI/ADR-RES),GI50 (LOX IMVI),GI50 (SNB-75),GI50 (CAKI-1),GI50 (K562),GI50 (SK-OV-3),GI50 (HCT-15),GI50 (HT-29),GI50 (MDA-MB-435),GI50 (NCI-H226),GI50 (MOLT-4),GI50 (SN12C),GI50 (UACC-62),GI50 (HL-60),GI50 (A549),GI50 (SR),GI50 (MCF7),GI50 (MDA-MB-231),GI50 (SNB-19),GI50 (U-251)
O=C(c1no[n+]([O-])c1C(=O)c1csc2ccccc12)c1csc2ccccc12,15.6 µM (inactive),1.25 µM (inactive),15.1 µM (inactive),0.82 µM (active),1.52 µM (inactive),16.1 µM (inactive),4.57 µM,3.64 µM (inactive),8.93 µM (inactive),12.9 µM (inactive),0.678 µM (active),4.37 µM (inactive),10.9 µM (inactive),0.0246 µM (active),10 µM (inactive),0.106 µM (active),4.41 µM (inactive),5.64 µM (inactive),16.9 µM (inactive),9.95 µM (inactive)
COC(=O)C(Cc1ccc([N+](=O)[O-])cc1)NC(=O)C(CC(=O)OC(C)(C)C)NC(=O)OC(C)(C)C (stereo not given) (Boc-Asp(OtBu)-[Phe(4-NO2)]-OMe; configuration not given here),> 100 µM (inactive),20.9 µM (inactive),55.5 µM (inactive),> 100 µM (inactive),> 100 µM (inactive),> 100 µM (inactive),> 100 µM,> 100 µM (inactive),> 100 µM (inactive),> 100 µM (inactive),66.8 µM (inactive),> 100 µM (inactive),> 100 µM (inactive),> 100 µM (inactive),> 100 µM (inactive),21.4 µM (inactive),> 100 µM (inactive),25.8 µM (inactive),> 100 µM (inactive),> 100 µM (inactive)
CCCCCCCCCCCCCC(=O)O[C@H]1CC[C@H](NC(=O)[C@H](OC)[C@H](O)[C@@H](O)[C@H](O)/C=C/C(C)C)C(=O)NC1 [BENGAMIDE A],5.18 µM (inactive),0.00512 µM (active),0.0353 µM (active),0.292 µM (active),0.00512 µM (active),0.149 µM (active),0.299 µM,0.00619 µM (active),0.204 µM (active),0.145 µM (active),0.00512 µM (active),0.00542 µM (active),0.00512 µM (active),0.00512 µM (active),0.00512 µM (active),0.0316 µM (active),0.0392 µM (active),0.137 µM (active),0.0115 µM (active),0.00705 µM (active)
